According to PubChem BioAssay AID330 (DTP/NCI, 2004):
Values joined by “and” are separate entries in the source; they are usually repeats but may differ in a detail not shown here. Equal values may be shown once. Toxic doses and inconclusive results are not listed. How the source made its calls: active means survival T/C of 150% or more; inactive means T/C below 125% in these data.

System: P388 leukemia ip, CD2F1 mice, survival T/C
Assay: NCI In Vivo Anticancer Drug Screen. Data for tumor model P388 Leukemia (intraperitoneal) in CD2F1 (CDF1) mice
Conditions: endpoint: median survival time, higher = longer survival
Outline: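 Mice carrying the transplanted tumor received test compound or vehicle. Survival was recorded in each group, and the value is the treated-group measurement divided by that of the vehicle-treated control group.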

[1] = dose: 25.0 mg/kg/injection, schedule: Q01DX009 (ip), vehicle: saline with Tween-80
[2] = dose: 50.0 mg/kg/injection, schedule: Q01DX009 (ip), vehicle: saline with Tween-80
[3] = dose: 60.0 mg/kg/injection, schedule: Q01DX005 (ip), vehicle: saline with Tween-80
[4] = dose: 120.0 mg/kg/injection, schedule: Q01DX005 (ip), vehicle: saline with Tween-80
[5] = dose: 240.0 mg/kg/injection, schedule: Q01DX005 (ip), vehicle: saline with Tween-80
[6] = dose: 100.0 mg/kg/injection, schedule: Q01DX009 (ip), vehicle: saline with Tween-80

Measured: T/C

O=C1NC(=O)C2(CCCc3ccc(N(CCO)CCO)cc32)N1 (stereo not drawn)
inactive: dose: 50.0 mg/kg/injection, schedule: Q01DX009 (ip), vehicle: DMSO 106 % of control | dose: 100.0 mg/kg/injection, schedule: Q01DX009 (ip), vehicle: DMSO 103 % of control | dose: 200.0 mg/kg/injection, schedule: Q01DX009 (ip), vehicle: DMSO 106 % of control

O=c1[nH]c2ccccc2nc1/C=C(\O)c1ccc([N+](=O)[O-])cc1
inactive: dose: 7.5 mg/kg/injection, schedule: Q01DX005 (ip), vehicle: Klucel + Tween-80 100 % of control | dose: 15.0 mg/kg/injection, schedule: Q01DX005 (ip), vehicle: Klucel + Tween-80 89 % of control | dose: 30.0 mg/kg/injection, schedule: Q01DX005 (ip), vehicle: Klucel + Tween-80 86 % of control

Cn1c(C(=O)O)cc(=O)cc1C(=O)O
inactive: dose: 6.25 mg/kg/injection, schedule: Q01DX009 (ip), vehicle: saline with Tween-80 100 % of control | dose: 12.5 mg/kg/injection, schedule: Q01DX009 (ip), vehicle: saline with Tween-80 101 % of control | [1] 95 % of control | [2] 100 % of control

CC1(C)CC(C)(OC(=O)c2ccc(F)cc2)N=N1 (stereo not drawn)
inactive: dose: 12.5 mg/kg/injection, schedule: Q01DX009 (ip), vehicle: other 103 % of control | dose: 25.0 mg/kg/injection, schedule: Q01DX009 (ip), vehicle: other 113 % of control | dose: 50.0 mg/kg/injection, schedule: Q01DX009 (ip), vehicle: other 108 % of control | dose: 100.0 mg/kg/injection, schedule: Q01DX009 (ip), vehicle: other 113 % of control | dose: 200.0 mg/kg/injection, schedule: Q01DX009 (ip), vehicle: other 118 % of control

CS(C)=NS(C)(=O)=O
inactive: dose: 100.0 mg/kg/injection, schedule: Q01DX001 (ip), vehicle: saline 113 % of control | dose: 200.0 mg/kg/injection, schedule: Q01DX001 (ip), vehicle: saline 106 % of control | dose: 400.0 mg/kg/injection, schedule: Q01DX001 (ip), vehicle: saline 107 % of control

N#C/C(=C\c1cccnc1)C(N)=S
inactive: dose: 50.0 mg/kg/injection, schedule: Q01DX009 (ip), vehicle: saline 101 % of control | dose: 100.0 mg/kg/injection, schedule: Q01DX009 (ip), vehicle: saline 88 % of control | dose: 200.0 mg/kg/injection, schedule: Q01DX009 (ip), vehicle: saline 104 % of control

CN(C)c1ccc(Cc2ccc(N(C)C)c(C(O)(c3ccccc3)c3ccccc3)c2)cc1C(O)(c1ccccc1)c1ccccc1
inactive: dose: 1.56 mg/kg/injection, schedule: Q01DX005 (ip), vehicle: saline 100 % of control | dose: 3.13 mg/kg/injection, schedule: Q01DX005 (ip), vehicle: saline 97 % of control | dose: 6.25 mg/kg/injection, schedule: Q01DX005 (ip), vehicle: saline 90 % of control

C[CH2][Ge]([CH2]C)[O][Ge]([CH2]C)[CH2]C.c1cc[c]([Ge]([c]2ccccc2)[c]2ccccc2)cc1.c1cc[c]([Ge]([c]2ccccc2)[c]2ccccc2)cc1
inactive: [3] 88 % of control | [4] 98 % of control | [5] 98 % of control

Cc1cc2c(cc1C)C(=O)c1c(C)ccc(C)c1C2=O
inactive: dose: 12.5 mg/kg/injection, schedule: Q01DX005 (ip), vehicle: saline with Tween-80 99 % of control | dose: 25.0 mg/kg/injection, schedule: Q01DX005 (ip), vehicle: saline with Tween-80 99 % of control | dose: 50.0 mg/kg/injection, schedule: Q01DX005 (ip), vehicle: saline with Tween-80 86 % of control and 89 % of control

O=S1(=O)c2ccccc2N(c2ccccc2)c2nnnn21
inactive: [3] 88 % of control | [4] 96 % of control | [5] 99 % of control

Cn1c(N2CCOCC2)cc2nc3ccccc3n2c1=O
inactive: [3] 96 % of control | [4] 98 % of control | [5] 96 % of control

COC(=O)CCCCC1=CCC2C(=O)C=C(O)C2C1 (stereo not drawn)
inactive: [3] 87 % of control | [4] 106 % of control | [5] 116 % of control

COc1ccc(N=C2C(=Nc3ccc(OC)cc3)N(c3ccc(OC)cc3)C(=S)N2C)cc1
inactive: dose: 50.0 mg/kg/injection, schedule: Q01DX005 (ip), vehicle: Klucel + Tween-80 106 % of control | dose: 100.0 mg/kg/injection, schedule: Q01DX005 (ip), vehicle: Klucel + Tween-80 93 % of control | dose: 200.0 mg/kg/injection, schedule: Q01DX005 (ip), vehicle: Klucel + Tween-80 106 % of control

C=CCCNC(=S)S
inactive: dose: 60.0 mg/kg/injection, schedule: Q01DX005 (ip), vehicle: saline 109 % of control | dose: 120.0 mg/kg/injection, schedule: Q01DX005 (ip), vehicle: saline 107 % of control | dose: 240.0 mg/kg/injection, schedule: Q01DX005 (ip), vehicle: saline 108 % of control

CN(C)CCC=C1c2ccccc2C(C)(C)c2ccccc21
inactive: dose: 50.0 mg/kg/injection, schedule: Q01DX005 (ip), vehicle: Klucel (hydroxypropylcellulose) (HPC) 98 % of control | dose: 100.0 mg/kg/injection, schedule: Q01DX005 (ip), vehicle: Klucel (hydroxypropylcellulose) (HPC) 97 % of control

Cc1cc[n+](C)c2ccccc12
inactive: dose: 9.37 mg/kg/injection, schedule: Q01DX009 (ip), vehicle: saline with Tween-80 109 % of control | dose: 18.75 mg/kg/injection, schedule: Q01DX009 (ip), vehicle: saline with Tween-80 100 % of control | dose: 37.5 mg/kg/injection, schedule: Q01DX009 (ip), vehicle: saline with Tween-80 104 % of control

O=C1OCCOCCOCCOCCOC1=O
inactive: dose: 100.0 mg/kg/injection, schedule: Q04DX003 (ip), vehicle: saline 96 % of control | dose: 200.0 mg/kg/injection, schedule: Q04DX003 (ip), vehicle: saline 101 % of control | dose: 400.0 mg/kg/injection, schedule: Q04DX003 (ip), vehicle: saline 104 % of control

CCCCCC(CN1CCCCC1)C(=O)/C=C/c1ccccc1 (stereo not drawn)
inactive: [1] 101 % of control | [2] 107 % of control | [6] 117 % of control

CCCCCNCC(=O)O
inactive: dose: 50.0 mg/kg/injection, schedule: Q01DX005 (ip), vehicle: saline 91 % of control | dose: 100.0 mg/kg/injection, schedule: Q01DX005 (ip), vehicle: saline 96 % of control

CC1=NN(C(=O)c2cccnc2)C(=O)C1N=Nc1ccc(S(=O)(=O)Nc2nc(C)cc(C)n2)cc1 (stereo not drawn)
inactive: [2] 101 % of control | [6] 99 % of control | dose: 200.0 mg/kg/injection, schedule: Q01DX009 (ip), vehicle: saline with Tween-80 99 % of control

CC1=C(C#N)C(=O)N(C)C(=O)C1(Cl)Cl
inactive: dose: 100.0 mg/kg/injection, schedule: Q04DX002 (ip), vehicle: Klucel (hydroxypropylcellulose) (HPC) 98 % of control | dose: 200.0 mg/kg/injection, schedule: Q04DX002 (ip), vehicle: Klucel (hydroxypropylcellulose) (HPC) 98 % of control

O=C(CS(=O)(=O)c1ccccc1)CS(=O)(=O)c1ccccc1
inactive: dose: 50.0 mg/kg/injection, schedule: Q01DX009 (ip), vehicle: Klucel (hydroxypropylcellulose) (HPC) 96 % of control | dose: 100.0 mg/kg/injection, schedule: Q01DX009 (ip), vehicle: Klucel (hydroxypropylcellulose) (HPC) 98 % of control | dose: 200.0 mg/kg/injection, schedule: Q01DX009 (ip), vehicle: Klucel (hydroxypropylcellulose) (HPC) 99 % of control

COc1cc2c(cc1OC)C1C(=O)c3ccc4c(c3OC1CO2)CC(C(C)(O)CO)O4 (stereo not drawn)
inactive: dose: 10.0 mg/kg/injection, schedule: Q01DX005 (ip), vehicle: DMSO 108 % of control | dose: 20.0 mg/kg/injection, schedule: Q01DX005 (ip), vehicle: DMSO 107 % of control

Cc1cc2c(c(C(C)(C)C)c1)OC(=O)/C2=C1/C(=O)Oc2c1cc(C)cc2C(C)(C)C
inactive: dose: 1.87 mg/kg/injection, schedule: Q01DX005 (ip), vehicle: Klucel (hydroxypropylcellulose) (HPC) 112 % of control | dose: 3.75 mg/kg/injection, schedule: Q01DX005 (ip), vehicle: Klucel (hydroxypropylcellulose) (HPC) 101 % of control | dose: 7.5 mg/kg/injection, schedule: Q01DX005 (ip), vehicle: Klucel (hydroxypropylcellulose) (HPC) 94 % of control | dose: 60.0 mg/kg/injection, schedule: Q01DX005 (ip), vehicle: Klucel (hydroxypropylcellulose) (HPC) 90 % of control

Clc1ccc(-n2cnn3c(-c4ccccc4)ncc23)cc1
inactive: dose: 100.0 mg/kg/injection, schedule: Q04DX002 (ip), vehicle: saline with Tween-80 90 % of control | dose: 200.0 mg/kg/injection, schedule: Q04DX002 (ip), vehicle: saline with Tween-80 87 % of control | dose: 400.0 mg/kg/injection, schedule: Q04DX002 (ip), vehicle: saline with Tween-80 93 % of control

COc1ccc(OC/C(C)=N\NS(=O)(=O)c2cc(Cl)c(Cl)cc2Cl)cc1
inactive: dose: 100.0 mg/kg/injection, schedule: Q01DX001 (ip), vehicle: gum acacia 96 % of control | dose: 200.0 mg/kg/injection, schedule: Q01DX001 (ip), vehicle: gum acacia 93 % of control | dose: 400.0 mg/kg/injection, schedule: Q01DX001 (ip), vehicle: gum acacia 95 % of control
